In ChEMBL document CHEMBL3046649, “Fungitoxic and Phytotoxic Activities of Cinnamic Acid Esters and Amides” (2000):

Tests used:
[1] = test system: Brassica rapa subsp. chinensis; test: whole plant or invertebrate; format: functional; details: 72 h, read-out: GI
Description: Phytotoxicity against Brassica rapa subsp. chinensis assessed as growth inhibition of hypocotyl at 100 ppm treated to seeds after 3 days

Pythium [2] = test: microbe, parasite or virus in culture; format: functional; details: read-out: GI
Description: Fungitoxic activity against Pythium sp. assessed as mycelial growth inhibition at 100 ppm after 4 to 5 days by agar dilution method

[3] = test system: Brassica rapa subsp. chinensis; test: whole plant or invertebrate; format: functional; details: 72 h, read-out: GI; remark: listed apart in the source
Description: Phytotoxicity against Brassica rapa subsp. chinensis assessed as growth inhibition of radicle at 100 ppm treated to seeds after 3 days

Pythium [4] = test: Fungitoxic activity against Pythium sp. assessed as mycelial growth inhibition at 10 ppm after 4 to 5 days by agar dilution method; details: read-out: GI
Athelia rolfsii [5] = test: Fungitoxic activity against Athelia rolfsii assessed as mycelial growth inhibition at 10 ppm after 4 to 5 days by agar dilution method; format: functional; details: Agroathelia rolfsii; read-out: GI
Athelia rolfsii [6] = test: microbe, parasite or virus in culture; format: functional; details: Agroathelia rolfsii, read-out: GI
Description: Fungitoxic activity against Athelia rolfsii assessed as mycelial growth inhibition at 100 ppm after 4 to 5 days by agar dilution method

## CC(C)OC(=O)/C=C/c1ccc(Cl)cc1 [ISOPROPYL 3-(4-CHLOROPHENYL)ACRYLATE]
[1]
  inhibition of growth at 100 ppm: 18%
Pythium [2]
  inhibition of growth at 100 ppm: 86%
[3]
  inhibition of growth at 100 ppm: 0%
Pythium [4]
  inhibition of growth at 10 ppm: 7%
Athelia rolfsii [5]
  inhibition of growth at 10 ppm: 34%
Athelia rolfsii [6]
  inhibition of growth at 100 ppm: 99%

## CC(C)OC(=O)/C=C/c1ccc(C(C)C)cc1 [ISOPROPYL 3-(4-ISOPROPYLPHENYL)ACRYLATE]
[1]
  inhibition of growth at 100 ppm: 18%
Pythium [2]
  inhibition of growth at 100 ppm: 70%
[3]
  inhibition of growth at 100 ppm: 0%
Pythium [4]
  inhibition of growth at 10 ppm: 21%
Athelia rolfsii [5]
  inhibition of growth at 10 ppm: 42%
Athelia rolfsii [6]
  inhibition of growth at 100 ppm: 92%

## CC(C)OC(=O)/C=C/c1ccccc1 [ISOPROPYL CINNAMATE]
[1]
  inhibition of growth at 100 ppm: 2%
Pythium [2]
  inhibition of growth at 100 ppm: 82%
[3]
  inhibition of growth at 100 ppm: 2%
Pythium [4]
  inhibition of growth at 10 ppm: 5%
Athelia rolfsii [5]
  inhibition of growth at 10 ppm: 41%
Athelia rolfsii [6]
  inhibition of growth at 100 ppm: 86%

## COC(=O)/C=C/c1ccc(Cl)cc1Cl [METHYL 3-(2,4-DICHLOROPHENYL)ACRYLATE]
[1]
  inhibition of growth at 100 ppm: 66%
Pythium [2]
  inhibition of growth at 100 ppm: 68%
[3]
  inhibition of growth at 100 ppm: 84%
Pythium [4]
  inhibition of growth at 10 ppm: 39%
Athelia rolfsii [5]
  inhibition of growth at 10 ppm: 43%
Athelia rolfsii [6]
  inhibition of growth at 100 ppm: 75%

## COC(=O)/C=C/c1ccc(Cl)cc1 [METHYL 3-(4-CHLOROPHENYL)ACRYLATE]
[1]
  inhibition of growth at 100 ppm: 84%
Pythium [2]
  inhibition of growth at 100 ppm: 99%
[3]
  inhibition of growth at 100 ppm: 93%
Pythium [4]
  inhibition of growth at 10 ppm: 19%
Athelia rolfsii [5]
  inhibition of growth at 10 ppm: 52%
Athelia rolfsii [6]
  inhibition of growth at 100 ppm: 94%

## CCCCNC(=O)/C=C/c1ccc(Cl)cc1 [N-BUTYL-3-(4-CHLOROPHENYL)ACRYLAMIDE]
[1]
  inhibition of growth at 100 ppm: 44%
Pythium [2]
  inhibition of growth at 100 ppm: 80%
[3]
  inhibition of growth at 100 ppm: 62%
Pythium [4]
  inhibition of growth at 10 ppm: 45%
Athelia rolfsii [5]
  inhibition of growth at 10 ppm: 58%
Athelia rolfsii [6]
  inhibition of growth at 100 ppm: 93%

## CCCCNC(=O)/C=C/c1ccc(C(C)C)cc1 [N-BUTYL-3-(4-ISOPROPYLPHENYL)ACRYLAMIDE]
[1]
  inhibition of growth at 100 ppm: 41%
Pythium [2]
  inhibition of growth at 100 ppm: 90%
[3]
  inhibition of growth at 100 ppm: 51%
Pythium [4]
  inhibition of growth at 10 ppm: 37%
Athelia rolfsii [5]
  inhibition of growth at 10 ppm: 28%
Athelia rolfsii [6]
  inhibition of growth at 100 ppm: 92%

## CCCCNC(=O)/C=C/c1ccccc1 [N-BUTYLCINNAMAMIDE]
[1]
  inhibition of growth at 100 ppm: 50%
Pythium [2]
  inhibition of growth at 100 ppm: 84%
[3]
  inhibition of growth at 100 ppm: 71%
Pythium [4]
  inhibition of growth at 10 ppm: 33%
Athelia rolfsii [5]
  inhibition of growth at 10 ppm: 45%
Athelia rolfsii [6]
  inhibition of growth at 100 ppm: 94%

## CCCCCCNC(=O)/C=C/c1ccccc1 [N-HEXYLCINNAMAMIDE]
[1]
  inhibition of growth at 100 ppm: 55%
Pythium [2]
  inhibition of growth at 100 ppm: 87%
[3]
  inhibition of growth at 100 ppm: 82%
Pythium [4]
  inhibition of growth at 10 ppm: 14%
Athelia rolfsii [5]
  inhibition of growth at 10 ppm: 32%
Athelia rolfsii [6]
  inhibition of growth at 100 ppm: 91%

## CC(C)CNC(=O)/C=C/c1ccc(C(C)C)cc1 [N-ISOBUTYL-3-(4-ISOPROPYLPHENYL)ACRYLAMIDE]
[1]
  inhibition of growth at 100 ppm: 34%
Pythium [2]
  inhibition of growth at 100 ppm: 58%
[3]
  inhibition of growth at 100 ppm: 45%
Pythium [4]
  inhibition of growth at 10 ppm: 42%
Athelia rolfsii [5]
  inhibition of growth at 10 ppm: 37%
Athelia rolfsii [6]
  inhibition of growth at 100 ppm: 42%

## CC(C)CNC(=O)/C=C/c1ccccc1 [N-ISOBUTYLCINNAMAMIDE]
[1]
  inhibition of growth at 100 ppm: 34%
Pythium [2]
  inhibition of growth at 100 ppm: 74%
[3]
  inhibition of growth at 100 ppm: 78%
Pythium [4]
  inhibition of growth at 10 ppm: 23%
Athelia rolfsii [5]
  inhibition of growth at 10 ppm: 29%
Athelia rolfsii [6]
  inhibition of growth at 100 ppm: 82%

## CC(C)NC(=O)/C=C/c1ccc(C(C)C)cc1 [N-ISOPROPYL-3-(4-ISOPROPYLPHENYL)ACRYLAMIDE]
[1]
  inhibition of growth at 100 ppm: 50%
Pythium [2]
  inhibition of growth at 100 ppm: 62%
[3]
  inhibition of growth at 100 ppm: 62%
Pythium [4]
  inhibition of growth at 10 ppm: 40%
Athelia rolfsii [5]
  inhibition of growth at 10 ppm: 40%
Athelia rolfsii [6]
  inhibition of growth at 100 ppm: 80%

## CC(C)NC(=O)/C=C/c1ccccc1 [N-ISOPROPYLCINNAMAMIDE]
[1]
  inhibition of growth at 100 ppm: 39%
Pythium [2]
  inhibition of growth at 100 ppm: 47%
[3]
  inhibition of growth at 100 ppm: 76%
Pythium [4]
  inhibition of growth at 10 ppm: 0%
Athelia rolfsii [5]
  inhibition of growth at 10 ppm: 17%
Athelia rolfsii [6]
  inhibition of growth at 100 ppm: 96%

## Cc1cccc(NC(=O)/C=C/c2ccccc2)c1 [N-M-TOLYLCINNAMAMIDE]
[1]
  inhibition of growth at 100 ppm: 13%
Pythium [2]
  inhibition of growth at 100 ppm: 85%
[3]
  inhibition of growth at 100 ppm: 59%
Pythium [4]
  inhibition of growth at 10 ppm: 52%
Athelia rolfsii [5]
  inhibition of growth at 10 ppm: 34%
Athelia rolfsii [6]
  inhibition of growth at 100 ppm: 83%

## CCCNC(=O)/C=C/c1ccccc1 [N-PROPYLCINNAMAMIDE]
[1]
  inhibition of growth at 100 ppm: 15%
Pythium [2]
  inhibition of growth at 100 ppm: 54%
[3]
  inhibition of growth at 100 ppm: 63%
Pythium [4]
  inhibition of growth at 10 ppm: 17%
Athelia rolfsii [5]
  inhibition of growth at 10 ppm: 26%
Athelia rolfsii [6]
  inhibition of growth at 100 ppm: 89%

## CCC(C)NC(=O)/C=C/c1ccc(Cl)cc1 (stereo unspecified) [N-SEC-BUTYL-3-(4-CHLOROPHENYL)ACRYLAMIDE]
[1]
  inhibition of growth at 100 ppm: 40%
Pythium [2]
  inhibition of growth at 100 ppm: 43%
[3]
  inhibition of growth at 100 ppm: 61%
Pythium [4]
  inhibition of growth at 10 ppm: 41%
Athelia rolfsii [5]
  inhibition of growth at 10 ppm: 44%
Athelia rolfsii [6]
  inhibition of growth at 100 ppm: 88%
